According to patent US20220041691A1, “METHODS FOR DIAGNOSING OR TREATING POST-TRAUMATIC STRESS DISORDER, AND COMPOSITIONS THEREFOR” (Centre for Addiction and Mental Health, priority 2018, published 2022):
Positions count from the first letter of the chain named.

T1: GR-FKBP51 complex (Mus musculus, UniProt Q64378)
T1 construct: from tissue; host or cells: C57Bl/6 mouse brain (acute slices; whole-brain lysate) and blood lymphocytes
T1 sequence (Q64378 1-456): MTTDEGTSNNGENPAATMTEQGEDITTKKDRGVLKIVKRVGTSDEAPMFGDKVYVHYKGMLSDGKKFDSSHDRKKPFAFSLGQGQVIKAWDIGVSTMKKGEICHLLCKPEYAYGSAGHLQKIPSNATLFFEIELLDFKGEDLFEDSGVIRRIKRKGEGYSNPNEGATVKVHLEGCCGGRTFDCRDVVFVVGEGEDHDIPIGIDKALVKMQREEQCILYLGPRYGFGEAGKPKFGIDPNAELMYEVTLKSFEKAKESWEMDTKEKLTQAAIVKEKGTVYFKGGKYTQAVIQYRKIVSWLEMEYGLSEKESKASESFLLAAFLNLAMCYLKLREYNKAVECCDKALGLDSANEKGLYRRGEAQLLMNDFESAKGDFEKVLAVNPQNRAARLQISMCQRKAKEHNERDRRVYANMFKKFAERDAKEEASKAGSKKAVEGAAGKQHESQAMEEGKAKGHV

T2: Flag-tagged GR, wild-type (human, UniProt P04150 1-777)
T2 construct: Expressed in HEK293(T) cells; also called Flag-GR; WT-GR; not shown: Flag tag
T2 sequence: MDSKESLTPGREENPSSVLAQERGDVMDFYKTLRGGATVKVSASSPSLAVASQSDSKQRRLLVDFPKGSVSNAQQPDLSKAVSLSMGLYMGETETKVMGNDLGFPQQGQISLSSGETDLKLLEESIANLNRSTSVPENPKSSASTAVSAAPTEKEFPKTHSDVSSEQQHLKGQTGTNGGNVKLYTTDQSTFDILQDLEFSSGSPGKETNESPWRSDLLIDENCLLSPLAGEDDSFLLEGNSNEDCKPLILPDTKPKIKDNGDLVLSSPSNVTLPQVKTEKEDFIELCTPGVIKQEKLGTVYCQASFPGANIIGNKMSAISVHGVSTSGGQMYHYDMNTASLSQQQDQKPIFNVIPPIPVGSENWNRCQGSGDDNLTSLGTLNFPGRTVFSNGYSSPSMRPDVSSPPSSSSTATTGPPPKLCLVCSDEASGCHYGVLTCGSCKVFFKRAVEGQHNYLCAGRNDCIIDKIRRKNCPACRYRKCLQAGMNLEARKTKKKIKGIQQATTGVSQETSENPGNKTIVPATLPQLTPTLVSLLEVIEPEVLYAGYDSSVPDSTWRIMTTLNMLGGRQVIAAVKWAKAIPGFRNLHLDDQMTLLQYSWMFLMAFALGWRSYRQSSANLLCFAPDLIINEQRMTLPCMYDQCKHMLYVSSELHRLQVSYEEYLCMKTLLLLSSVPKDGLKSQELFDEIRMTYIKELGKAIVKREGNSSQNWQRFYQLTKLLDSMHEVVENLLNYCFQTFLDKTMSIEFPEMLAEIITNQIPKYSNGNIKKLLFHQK

T3: Flag-tagged GR S211A mutant (non-phosphorylated GR mutant) (human, UniProt P04150 1-777)
T3 construct: also called S211A-GR; S211A GR; not shown: Flag tag
T3 sequence: T2 sequence with S211A

T4: Flag-tagged GR S211E mutant (phosphomimetic GR mutant) (human, UniProt P04150 1-777)
T4 construct: also called S211E-GR; S211E GR; not shown: Flag tag
T4 sequence: T2 sequence with S211E

B1: GST-FKBP51_TPR (GST fusion of the tetratricopeptide repeat domain of FKBP51) (other)
chain: EMDTKEKLEQAAIVKEKGTVYFKGGKYMQAVIQYGKIVSWLEMEYGLSEKESKASESFLLAAFLNLAMCYLKLREYTKAVECCDKALGLDSANEKGLYRRGEAQLLMNEFESAKGDFEKVLEVNPQNKAARLQISMCQKKAKEHNERDRRIYANMFKKFAEQDAKEEANKAMGKKTSEGVTNEKGTDSQAMEEEKPEGHV
notes: also called GST-TPR; FKBP51 TPR domain; not shown: glutathione S-transferase (GST) tag; vector stated only for the GR fragments (pGEX-4T3)

Legend:
fear-conditioned mice = assay: Cued fear conditioning, systemic (i.p.) peptide delivery; type: in vivo, mouse; settings: p<0.05
Method: Next, testing was performed to determine whether TAT-GRpep can block the emergence of PTSD-like fear-related behaviours when administrated systemically. Animals underwent five rounds of CS-US pairings followed by 5 days of extinction training before the expression of fear in response to the learned cue was assessed (FIG. 4A). Mice were injected with either TAT-GRpep or TAT intraperitoneally (3 nmol/g, i.p.) one hour before the test.
Furthermore, testing was performed to determine whether disrupting the GR-FKBP51 complex reduced consolidation of cued fear memory. Thus, TAT or TAT-GRpep was administered two hours after the end of fear conditioning training (FIG. 4C), before five consecutive daily extinction sessions of cue exposure without shock. […] This may therefore indicate a potential approach to both preventing and treating PTSD-like behaviour in the aftermath of trauma, for example.
Animals were first given a five-minute habituation to the apparatus (Habitest, Colbourne Instruments). Then, animals were exposed to 30 seconds of cue exposure (an in-house white light), which co-terminated with one second of foot-shock (0.5 mA). The cue exposure and foot-shock were repeated five times, intermitted by 5-minute inter-trial intervals. Following the conditioning, animals were subjected to 2-5 days of extinction before the assessment of their cued fear memory, which consisted of 15 rounds of 30-second cue exposure, with 30-second inter-trial intervals (adapted from Andero et al.).^48
The expression of fear (in a different context from training) was assessed 24 hours after the last extinction training. The assessment consisted of a three-minute period of habituation (absence of CS) and a sequent three-minute trial of conditioned cues. The duration of freezing behaviors was recorded by a blinded experimenter. Peptide treatment was either administered 2 hours after the conditioning or 30 minutes before the behavioral assessment.

GR-FKBP51 complex = biological target: T1, GR-FKBP51 complex; assay: Co-immunoprecipitation of GR-FKBP51 complex in brain and lymphocyte lysate of fear-conditioned mice injected with peptide; type: in vivo; settings: brain lysate of fear-conditioned mice injected with TAT or TAT-GRpep; p<0.05, n=3
Method: Furthermore, testing was performed to determine whether disrupting the GR-FKBP51 complex reduced consolidation of cued fear memory. Thus, TAT or TAT-GRpep was administered two hours after the end of fear conditioning training (FIG. 4C), before five consecutive daily extinction sessions of cue exposure without shock.
(§1) Co-immunoprecipitation and Western blot analyses were performed as previously described.^24, 25, 26 For co-immunoprecipitation, 500˜1000 μg solubilized protein was extracted from whole mouse brain and incubated with primary antibody or control IgG (2˜4 μg) for 4 hrs at 4° C., followed by the addition of 25 μl protein A/G plus agarose (Santa Cruz Biotechnology) for 12 hrs. Pellets were washed, boiled for 5 min in SDS sample buffer and subjected to SDS-PAGE. 50˜100 μg of total protein extract was used as control in each experiment. After transfer of proteins into nitrocellulose, membranes were Western blotted with the primary antibodies. The intensity of protein level was quantified by densitometry (software: ImageLab, Bio-Rad).

[1] = test system: GR phosphorylation at S211; assay: Western blot of GR phosphorylation at S211 in brain lysate of fear-conditioned mice; type: in vivo, mouse; settings: brain lysate of fear-conditioned mice injected with TAT or TAT-GRpep; p<0.05, n=3
Text: To further investigate these findings, surface plasmon resonance (SPR) was used to estimate association and dissociation rates between GR and FKBP51. […] Thus, GR S211 phosphorylation seems to reduce GR affinity for FKBP51. Conversely, disruption of the GR-FKBP51 complex with TAT-GRpep could increase GR S211 phosphorylation, which is what was observed when comparing fear-conditioned mice treated with TAT-GRpep vs. TAT control or no treatment (FIG. 5 I-J).
as §1, with “Bio-Rad). […]” for “Bio-Rad).”

[2] = test system: GR and FKBP52 colocalization in primary neurons; assay: Immunocytochemistry of GR and FKBP52 in primary mouse neurons; type: cell-based; settings: primary neurons 8 DIV, 10 μM, 45 min
Method: Cortical tissues from embryonic day (E14) mouse brains were dissected out, incubated with 0.25% trypsin for 15 min at 37° C., and dissociated by mechanical trituration. Neurons were then plated at a desired density onto glass coverslips previously coated with 0.1 mg/ml poly-d-lysine, and grown in Neurobasal medium with 1× Glutamax, 1×B27, 100 U/ml penicillin and 100 μg/ml streptomycin in an incubator (37° C., 5% CO2). Either 10 μM of TAT-GRpep, 10 μM TAT-control peptide or saline were added in culture plates for 45 min in advance at 8 days in vitro (8 DIV).
Cultured neurons were fixed in 4% PFA/4% sucrose, permeabilized with 0.1M PBS containing 0.1% Triton X-100 for 10 min, and blocked for 1 hour with 1% bovine serum albumin in PBS at room temperature. They were incubated with primary antibodies overnight at 4° C. and secondary antibodies for 1 hour at room temperature. The following primary antibodies were used: anti-GR (1:200; Thermo), anti-FKBP51 (1:200; Abcam) and anti-FKBP52 (1:200; Abcam). […] DAPI was used to stain cell nuclei.

[3] = biological target: T2, Flag-tagged GR, wild-type; assay: SPR (Reichert SR7500DC, 25 C), FLAG-tagged GR captured on FLAG antibody-coated chip, GST-FKBP51_TPR injected
[4] = biological target: T3, Flag-tagged GR S211A mutant …; assay: as above
[5] = biological target: T4, Flag-tagged GR S211E mutant …; assay: as above

Row | Molecule | duration of freezing with the CS (fear-conditioned mice; 3 nmol/g i.p. one hour before the test, after 5 days of extinction training, three-minute cue trial) [s] | duration of freezing with the CS (consolidation of cued fear memory) (fear-conditioned mice; peptide administered two hours after end of fear conditioning, tested 24 hours after last of five daily extinction sessions) [s] | GR-FKBP51 complex level in brain (co-immunoprecipitation) (GR-FKBP51 complex) | GR phosphorylation at S211 [1] | nuclear GR-FKBP52 colocalization [2] | Kd [3] [µM] | Kd [4] [µM] | Kd [5] [µM]
1 | TAT: control peptide: cell-membrane transduction domain of the human immunodeficiency virus-type 1 TAT protein (GRKKRRQRRRPQ; Amino Acid Sequence of the Cell-Membrane Transduction Domain of HIV-Type 1 Transactivator of Transcription (TAT) Protein) [reference compound] | 64.2 ± 10.7 | 71.0 ± 3.6 | not | not | almost negligible amount of GR-FKBP52 complex | – | – | –
2 | B1 | – | – | – | – | – | 3.31 | 0.412 | 3.9
